Reference: the supplement of paper PMC10883282

Experiments:
Assay in all cases: relative viability vs DMSO control (72 h) (fraction); higher = more viable cells
A204 = system: A204
Procedure, shortened: (§1)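 Serially diluted compound, 2.5 µl from source plates spanning 10 mM to 0.0002 mM, was added 24 h after sarcoma cell lines were seeded in 384-well plates at densities targeting 80–90% confluence. Plates then sat 72 h at 37 °C, 5% CO2, with 0.1% DMSO vehicle and a 5 µM positive control. Relative viability came from ATPLite as percent growth, averaged over up to triplicate wells, and was rescaled with 1 as full and 0 as none.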

SW982 = system: SW982
Procedure, shortened: as §1

SW1353 = system: SW1353
Procedure, shortened: as §1

G401 = system: G401
Procedure, shortened: as §1

SW872 = system: SW872
Procedure, shortened: as §1

SK-LMS-1 = system: SK-LMS-1
Procedure, shortened: as §1

SK-ES-1 = system: SK-ES-1
Procedure, shortened: as §1

MES-SA = system: MES-SA
Procedure, shortened: as §1

SYO-1 = system: SYO-1
Procedure, shortened: as §1

KHOS-240S = system: KHOS-240S
Procedure, shortened: as §1

SW684 = system: SW684
Procedure, shortened: as §1

HS729 = system: HS729
Procedure, shortened: as §1

COC(=O)[C@@]1(O)C[C@H]2O[C@]1(C)n1c3ccccc3c3c4c(c5c6ccccc6n2c5c31)C(=O)NC4 [K-252a]
Details	relative viability
A204, 0.00017 µM	1.06
A204, 0.00051 µM	1.11
A204, 0.00152 µM	1.06
A204, 0.00457 µM	1.07
A204, 0.01372 µM	0.941
A204, 0.04115 µM	0.6765
A204, 0.1235 µM	0.527
A204, 0.3704 µM	0.433
A204, 1.111 µM	0.374
A204, 3.333 µM	0.31
A204, 10 µM	0.0136
G401, 0.00017 µM	1.05
G401, 0.00051 µM	1.06
G401, 0.00152 µM	1.03
G401, 0.00457 µM	1.031
G401, 0.01372 µM	1.04
G401, 0.04115 µM	0.977
G401, 0.1235 µM	1
G401, 0.3704 µM	0.893
G401, 1.111 µM	0.0854
G401, 3.333 µM	0.0149
G401, 10 µM	0.00607
HS729, 0.00017 µM	1.06
HS729, 0.00051 µM	1.02
HS729, 0.00152 µM	1
HS729, 0.00457 µM	0.923
HS729, 0.01372 µM	0.863
HS729, 0.04115 µM	0.754
HS729, 0.1235 µM	0.713
HS729, 0.3704 µM	0.752
HS729, 1.111 µM	0.588
HS729, 3.333 µM	0.356
HS729, 10 µM	0.0254
KHOS-240S, 0.00017 µM	1.06
KHOS-240S, 0.00051 µM	1.05
KHOS-240S, 0.00152 µM	1.08
KHOS-240S, 0.00457 µM	1.06
KHOS-240S, 0.01372 µM	1.05
KHOS-240S, 0.04115 µM	0.998
KHOS-240S, 0.1235 µM	0.815
KHOS-240S, 0.3704 µM	0.553
KHOS-240S, 1.111 µM	0.346
KHOS-240S, 3.333 µM	0.258
KHOS-240S, 10 µM	0.0419
MES-SA, 0.00017 µM	0.97
MES-SA, 0.00051 µM	0.953
MES-SA, 0.00152 µM	0.956
MES-SA, 0.00457 µM	0.916
MES-SA, 0.01372 µM	0.827
MES-SA, 0.04115 µM	0.618
MES-SA, 0.1235 µM	0.596
MES-SA, 0.3704 µM	0.407
MES-SA, 1.111 µM	0.324
MES-SA, 3.333 µM	0.0952
MES-SA, 10 µM	0.00197
SK-ES-1, 0.00017 µM	1.06
SK-ES-1, 0.00051 µM	1.05
SK-ES-1, 0.00152 µM	1.02
SK-ES-1, 0.00457 µM	1.02
SK-ES-1, 0.01372 µM	0.778
SK-ES-1, 0.04115 µM	0.508
SK-ES-1, 0.1235 µM	0.398
SK-ES-1, 0.3704 µM	0.256
SK-ES-1, 1.111 µM	0.126
SK-ES-1, 3.333 µM	0.115
SK-ES-1, 10 µM	0.114
SK-LMS-1, 0.00017 µM	1.03
SK-LMS-1, 0.00051 µM	1.01
SK-LMS-1, 0.00152 µM	1.04
SK-LMS-1, 0.00457 µM	1.044
SK-LMS-1, 0.01372 µM	0.9
SK-LMS-1, 0.04115 µM	0.719
SK-LMS-1, 0.1235 µM	0.664
SK-LMS-1, 0.3704 µM	0.619
SK-LMS-1, 1.111 µM	0.339
SK-LMS-1, 3.333 µM	0.212
SK-LMS-1, 10 µM	0.0825
SW684, 0.00017 µM	1.12
SW684, 0.00051 µM	1.176
SW684, 0.00152 µM	1.14
SW684, 0.00457 µM	1.18
SW684, 0.01372 µM	1.2
SW684, 0.04115 µM	1.14
SW684, 0.1235 µM	1.05
SW684, 0.3704 µM	0.906
SW684, 1.111 µM	0.512
SW684, 3.333 µM	0.0655
SW684, 10 µM	0.0141
SW872, 0.00017 µM	1.09
SW872, 0.00051 µM	1.06
SW872, 0.00152 µM	1.1
SW872, 0.00457 µM	1.05
SW872, 0.01372 µM	0.985
SW872, 0.04115 µM	0.843
SW872, 0.1235 µM	0.759
SW872, 0.3704 µM	0.589
SW872, 1.111 µM	0.394
SW872, 3.333 µM	0.0892
SW872, 10 µM	0.0117
SW982, 0.00017 µM	1.05
SW982, 0.00051 µM	1.064
SW982, 0.00152 µM	1.079
SW982, 0.00457 µM	1.07
SW982, 0.01372 µM	1.02
SW982, 0.04115 µM	0.733
SW982, 0.1235 µM	0.559
SW982, 0.3704 µM	0.443
SW982, 1.111 µM	0.2914
SW982, 3.333 µM	0.151
SW982, 10 µM	0.0215
SW1353, 0.00017 µM	1.037
SW1353, 0.00051 µM	1.033
SW1353, 0.00152 µM	1.03
SW1353, 0.00457 µM	1
SW1353, 0.01372 µM	0.964
SW1353, 0.04115 µM	0.892
SW1353, 0.1235 µM	0.814
SW1353, 0.3704 µM	0.772
SW1353, 1.111 µM	0.528
SW1353, 3.333 µM	0.294
SW1353, 10 µM	0.0167
SYO-1, 0.00017 µM	1.03
SYO-1, 0.00051 µM	0.983
SYO-1, 0.00152 µM	0.982
SYO-1, 0.00457 µM	0.9645
SYO-1, 0.01372 µM	0.928
SYO-1, 0.04115 µM	0.862
SYO-1, 0.1235 µM	0.66
SYO-1, 0.3704 µM	0.302
SYO-1, 1.111 µM	0.137
SYO-1, 3.333 µM	0.128
SYO-1, 10 µM	0.13
